Assay results reported in publication PMC4881748 (Journal of the American Chemical Society, 2016).

Experiments:
BoNT/A LC = BoNT/A LC (Clostridium botulinum, UniProt P0DPI0); assay type: biochemical, C. botulinum
BoNT/A = conditions: cited from earlier work
[1] = system: BoNT/A SNAP-25 cleavage in hiPSC-derived neurons; assay type: cell-based, human
[2] = system: BoNT/A SNAP-25 cleavage in hiPSC-derived neurons; assay type: cell-based, human; remark: listed apart in the source

BoNT/A LC, sequence (P0DPI0 2-448 limits assumed): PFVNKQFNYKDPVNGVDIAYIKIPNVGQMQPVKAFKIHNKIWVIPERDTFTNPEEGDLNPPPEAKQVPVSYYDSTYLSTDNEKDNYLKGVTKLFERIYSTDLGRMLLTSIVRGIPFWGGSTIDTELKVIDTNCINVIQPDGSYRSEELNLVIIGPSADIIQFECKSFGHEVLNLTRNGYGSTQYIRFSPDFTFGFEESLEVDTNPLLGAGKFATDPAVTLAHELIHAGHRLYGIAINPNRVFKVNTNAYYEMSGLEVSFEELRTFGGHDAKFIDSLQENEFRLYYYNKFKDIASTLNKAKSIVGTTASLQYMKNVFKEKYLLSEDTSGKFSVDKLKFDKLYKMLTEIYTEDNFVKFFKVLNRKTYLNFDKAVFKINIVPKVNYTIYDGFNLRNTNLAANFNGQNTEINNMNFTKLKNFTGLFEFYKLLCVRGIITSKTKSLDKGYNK

Compound | Inhibition in the LC enzyme assay (BoNT/A LC) | Inhibition of SNAP-25 cleavage with delayed inhibitor addition [1] | EC50, SNAP-25 protection in cellular assay [2] | also measured
O=C(O)CCC(=O)NO [4-(hydroxyamino)-4-oxobutanoic acid] | did not demonstrate any inhibition | – | – | –
O=C1CCC(=O)N1O [N-hydroxysuccinimide (NHS), N-hydroxysuccinimide] | did not demonstrate any inhibition | – | – | –
CO/C1=C\C(C)=C\[C@@H](C)[C@@H](O)[C@@H](C)C/C(C)=C/C=C/[C@H](OC)[C@@H]([C@@H](C)[C@@H](O)[C@H](C)[C@@]2(O)C[C@@H](O)[C@H](C)[C@@H](C(C)C)O2)OC1=O [bafilomycin A1] | – | initially effective | – | Activity when added 0.5 h after toxin exposure (BoNT/A): reduced activity; Activity when added simultaneously or immediately after BoNT/A (BoNT/A): presented activity
CC(=O)O[C@@H]1C[C@H](O)[C@@]23CO[C@@H](O)[C@]1(C)[C@@H]2C[C@@H](O)[C@]1(C)[C@@H]3C(=O)[C@H](OC(C)=O)[C@@]2(C)[C@H](c3ccoc3)C[C@H]3O[C@]321 [toosendanin] | – | initially effective | – | –
N-acetyl-N-(benzyloxy)acetamide [Compound 10] | – | – | Inactive | –
O-benzyl N-hydroxysuccinimide [Compound 7] | – | – | Inactive | –
